biological target: T1, endogenous CETP from serum (Homo sapiens, UniProt P11597); experiment: RTA assay in 95% human serum (in vitro radioactive assay of CETP-catalyzed CE and TG transfer, endogenous CETP); assay type: biochemical; conditions: read-out: IC50 (nM) RTA with 95% HS
T1 construct: yielding a concentration of approximately 15 nM endogenous CETP in the assay; from tissue; host or cells: human serum
T1 sequence (P11597 18-493): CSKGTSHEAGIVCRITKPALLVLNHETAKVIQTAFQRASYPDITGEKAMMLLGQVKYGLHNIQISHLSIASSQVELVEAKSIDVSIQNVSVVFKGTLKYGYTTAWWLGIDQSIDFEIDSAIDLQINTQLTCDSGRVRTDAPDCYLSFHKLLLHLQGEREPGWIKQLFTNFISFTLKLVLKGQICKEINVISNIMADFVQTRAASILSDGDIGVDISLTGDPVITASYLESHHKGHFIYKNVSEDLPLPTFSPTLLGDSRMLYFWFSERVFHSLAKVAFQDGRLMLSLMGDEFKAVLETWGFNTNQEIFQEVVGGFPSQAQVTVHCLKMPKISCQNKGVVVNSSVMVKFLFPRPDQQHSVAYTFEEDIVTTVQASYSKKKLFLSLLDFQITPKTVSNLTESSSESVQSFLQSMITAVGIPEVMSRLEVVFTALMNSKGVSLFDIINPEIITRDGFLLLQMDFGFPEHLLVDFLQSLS
Method: In Vitro Radioactive Assays of CETP-Catalyzed CE and TG Transfer (RTA Assay)
Reagents and sources are: [3H] cholesteryl oleate (GE #TRK.886), [3H] Triolein (Perkin-Elmer NET-431), Butylated hydroxyl toluene (Aldrich, #D4740-4), DOPC (Sigma, # P6354), Sodium Bromide (Fisher scientific #S255-500), PEG 8000 (Fisher, #BP233-1), and human HDL (Intracel Corp #RP-036).
An in vitro assay for determining IC50's to identify compounds that inhibit CETP transfer activity is performed based on a modification of a published method (Morton and Zilversmit, (1981) A plasma inhibitor of triglyceride and cholesteryl ester transfer activities, J. Biol. Chem. 256(23), 11992-11995). The ability of inhibitors to alter CETP activity is performed using two different assays: one using recombinant CETP and one using an endogenous plasma source of CETP. Both assays measure the transfer of [3H] cholesteryl oleate or [3H] triolein from exogenous LDL to HDL.
Radiolabeled donor particles are generated by first combining 100 μl of 200 μM butylated hydroxyl toluene in CHCl3, 216 μL of 21.57 mM DOPC in EtOH, and either 500 μCi [3H]-triolein (Perkin Elmer #NET-431) or 500 μCi [3H]-cholesteryl oleate (GE #TRK886) in a glass tube. Reagents are mixed, dried under nitrogen, and then resuspended in 2 mL of 50 mM Tris, 27 μM EDTA at pH 7.4. After a brief vortex, the solution is sonicated until clear and mixed with 20 mL of fresh human serum. The mixture is incubated overnight at 37° C. The [3H] labeled LDL substrate is separated at 1.063 g/ml density by sequential ultracentrifugal flotation in NaBr according to the method of Havel, Eder, et al., 1955, and Chapman, Goldstein, et al., 1981. Once isolated the particles are dialyzed 3× in CETP buffer (50 mM Tris, pH 7.4, 100 mM NaCl, 1 mM EDTA). Human HDL is purchased from Intracel and used as the acceptor particles.
Transfer assays are performed in a 96-well v-bottom polypropylene plate. For the RTA using recombinant CETP (2% RTA), an assay cocktail is prepared with the final concentrations 128 μg/mL HDL, 20 nM rCETP, 2% human serum, and 1×CETP buffer. 1 μL of each test compound diluted in DMSO is added to 47 μL of assay cocktail per well and incubated at 37° C. for 1 hour. To initiate the transfer reaction, 2 μL radiolabeled LDL is added. After an additional 60 min of incubation at 37° C., the transfer action is terminated by precipitation of LDL with an equal volume of 20% WN PEG 8000. The plates are centrifuged at 2000 rpm for 30 minutes at 4° C. A 40 μL aliquot of the HDL-containing supernatant is transferred to a Packard Optiplate™ with 200 μL of MicroScint™ 20. After mixing, plates are counted by liquid scintillation. Counts present in the supernatant for blanks (wells containing only HDL acceptor, CETP buffer and DMSO) are subtracted from those containing test compounds and used to correct for non-specific transfer.
For the transfer assay using endogenous CETP from serum (95% RTA), the same procedure is used except that human serum is added such that a final concentration of serum of 95% of the total assay volume is achieved, yielding a concentration of approximately 15 nM endogenous CETP in the assay. This is then combined with HDL and CETP buffer and the reaction proceeds as above and is terminated as described.
Comparison of the counts of samples with inhibitors to an uninhibited (DMSO only) positive control yield a percent inhibition. A plot of percent inhibition vs. log of inhibitor concentration, fit to a Sigmoidal 4 parameter equation is used to calculate IC50.
Starting materials are commercially available or are made using known procedures or as shown below. The examples may be synthesized according to the general schemes provided below and by using the synthetic intermediates that are described. The data reported for the examples below were obtained using the RTA assay in 95% human serum.

Row | Structure (SMILES) | IC50 [nM]
1 | COc1ccc(-c2cc(-c3ccc(C(=O)O)cc3C)ccc2OC)c(CC2=NO[C@H](c3cc(C(F)(F)F)cc(C(F)(F)F)c3)C2)n1 [Example 11, (S)-3′-[2-({5-[3,5-bis(trifluoromethyl)phenyl]-4,5-dihydroisoxazol-3-yl}methyl)-6-methoxypyridin-3-yl]-4′-methoxy-2-methylbiphenyl-4-carboxylic acid] | 176
2 | COc1ncc(-c2ccc(C(=O)O)cc2C)cc1-c1ccc(C(F)(F)F)cc1CC1=NO[C@H](c2cc(C(F)(F)F)cc(C(F)(F)F)c2)C1 [Example 6, 4-{5-[2-({(5S)-5-[3,5-bis(trifluoromethyl)phenyl]-4,5-dihydroisoxazol-3-yl}methyl)-4-(trifluoromethyl)phenyl]-6-methoxypyridin-3-yl}-3-methylbenzoic acid] | 537
3 | COc1ncc(-c2ccc(C(=O)O)cc2C)cc1-c1ccc(C(F)(F)F)cc1CC1=NO[C@H](c2ccnc(C(F)(F)F)c2)C1 [Example 9, (S)-4-{6-methoxy-5-[4-(trifluoromethyl)-2-({5-[2-(trifluoromethyl)pyridin-4-yl]-4,5-dihydroisoxazol-3-yl}methyl)phenyl]pyridin-3-yl}-3-methylbenzoic acid] | 6500
4 | COc1ncc(-c2ccc(C(=O)O)cc2C)cc1-c1ccc(C(F)(F)F)nc1CC1=NO[C@H](c2cc(C(F)(F)F)cc(C(F)(F)F)c2)C1 [Example 10, (S)-4-[2′-({5-[3,5-bis(trifluoromethyl)phenyl]-4,5-dihydroisoxazol-3-yl}methyl)-2-methoxy-6′-(trifluoromethyl)-3,3′-bipyridin-5-yl]-3-methylbenzoic acid] | 400
5 | COc1ncc(-c2ccc(C(=O)O)cc2C)cc1-c1cnc(C(F)(F)F)cc1CC1=NO[C@H](c2cc(C(F)(F)F)cc(C(F)(F)F)c2)C1 [Example 7, (S)-4-[4′-({5-[3,5-bis(trifluoromethyl)phenyl]-4,5-dihydroisoxazol-3-yl}methyl)-2-methoxy-6′-(trifluoromethyl)-3,3′-bipyridin-5-yl]-3-methylbenzoic acid] | 4970
6 | COc1ccc(CCC(=O)O)cc1-c1ccc(C(F)(F)F)cc1CC1=NO[C@H](c2cc(C(F)(F)F)cc(C(F)(F)F)c2)C1 [Example 5, 3-[2′-({(5S)-5-[3,5-bis(trifluoromethyl)phenyl]-4,5-dihydroisoxazol-3-yl}methyl)-6-methoxy-4′-(trifluoromethyl)biphenyl-3-yl]propanoic acid] | 1500

same assay, conditions: read-out: IC50 RTA (95% HS)

Row | Structure (SMILES) | IC50 [nM]
7 | COc1cc(F)c(-c2ccc(-c3n[nH]c(=O)o3)cc2C)cc1-c1ccc(C(F)(F)F)cc1CC1=NO[C@H](c2cc(C(F)(F)F)cc(C(F)(F)F)c2)C1 [Example 2, (S)-5-(2″-((5-(3,5-bis(trifluoromethyl)phenyl)-4,5-dihydroisoxazol-3-yl)methyl)-6′-fluoro-4′-methoxy-2-methyl-4″-(trifluoromethyl)-[1,1′:3′,1″-terphenyl]-4-yl)-1,3,4-oxadiazol-2(3H)-one] | 167
8 | COc1ccc(-c2ccc(C(=O)O)cc2C)cc1-c1ccc(C(F)(F)F)cc1CC1=NO[C@H](c2cc(C(F)(F)F)cc(C(F)(F)F)c2)[C@@H]1C [Example 3B, 2″-(((4R,5S)-5-(3,5-bis(trifluoromethyl)phenyl)-4-methyl-4,5-dihydroisoxazol-3-yl)methyl)-4′-methoxy-2-methyl-4″-(trifluoromethyl)-[1,1′:3′,1″-terphenyl]-4-carboxylic acid] | 293
9 | COc1ccc(-c2ccc(C(=O)O)cc2C)cc1-c1ccc(C(F)(F)F)cc1CC1=NO[C@@H](c2cc(C(F)(F)F)cc(C(F)(F)F)c2)[C@H]1C [Example 3A, 2″-(((4S,5R)-5-(3,5-bis(trifluoromethyl)phenyl)-4-methyl-4,5-dihydroisoxazol-3-yl)methyl)-4′-methoxy-2-methyl-4″-(trifluoromethyl)-[1,1′:3′,1″-terphenyl]-4-carboxylic acid] | > 10000
